How the values were obtained:
[1] = oral administration; cited from earlier work
[2] = In vitro skin permeation, Franz cells, frozen human abdominal skin; type: in vitro ADME; settings: Example 7
Experimental: Percutaneous absorption was measured using the in vitro cadaver skin finite dose technique. Cryo-preserved, human cadaver trunk skin was obtained from a skin bank and stored in water-impermeable plastic bags at <−70° C. until used.
Briefly, skin samples were prepared as follows.
The dermal cell was filled with receptor solution.
Experiments were performed under non-occlusive conditions.
Analysis of the samples was performed by HPLC.
Twenty-five micro liters of sample were injected.
Formulations 7.1 and 7.3 were made essentially as described above in the Materials and Methods. Formulation 7.1 and 7.2 are identical, but formulation 7.1 was tested on pig ear skin, and formulation 7.2 was tested on frozen human abdominal skin. Formulation 7.3 (Reference marketed product) was also tested on frozen human abdominal skin. Permeation studies used Franz cells as described in the Materials and Methods.
Individual gel amounts applied to tested skin samples were approximately 10 mg. Studies were performed according to OECD (Organization for Economic Cooperation and Development) guidelines (Organization for Economic Co-operation and Development (OECD), Environment Directorate. “Guidance document for the conduct of skin absorption studies,” OECD series on testing and assessment, No. 28. Paris, version 5 Mar. 2004).

[3] = in an alcohol/water solvent; cited from earlier work
[4] = cited from earlier work
[5] = In vitro skin permeation, Franz cells, finite dose, non-occlusive, pig ear skin; settings: topical or ocular, 10 mg, pH 7.4
Experimental: A finite dose (for example: 4-7 mg/cm^2) of formulation is applied to the outer surface of the skin and drug absorption is measured by monitoring its rate of appearance in the receptor solution bathing the inner surface of the skin. Data defining total absorption, rate of absorption, as well as skin content can be accurately determined in this model.
Pig skin can be prepared essentially as described below for human skin.
Prior to the experiment, skin was removed from the bag, placed in water (approximately 37° C.) for five minutes, and then cut into sections large enough to fit on 1 cm^2 Franz Cells (Crown Glass Co., Somerville, N.J.). Briefly, skin samples were prepared as follows. A small volume of phosphate buffered saline (PBS) was used to cover the bottom of the Petri dishes. Skin disks generally depleted of fat layers were placed in the Petri dishes for hydration. A Stadie-Riggs manual tissue microtome was used for slicing excised skin samples. Approximately 2 mL of PBS was placed into the middle cavity of the microtome as slicing lubricant. Skin disks were placed, dermal side up, into the middle cavity of the microtome. Filter paper was soaked with PBS, inserted in the cavity just above the skin disk. The filter paper prevented the dermis from sliding onto the top of the cutting block and helped to insure more precise cutting. […]

**Q.** For `NCCCC(O)(P(=O)(O)O)P(=O)(O)O` [sodium alendronate], which “fraction of the drug absorbed when administered orally” value [1] is on record?
**A.** Its value is “about 0.6%”.

**Q.** With `CN1CCC[C@H]1c1cccnc1` [nicotine, 1-methyl-2-(3-pyridyl)pyrrolidone] as the compound, how does the “change of transdermal in vitro bioavailability, frozen human skin versus fresh pig skin” value ([2]; p=0.009) read?
**A.** The value was −52%.

**Q.** What about the bioavailability at 16 h, 1.5 % FBE ([2]; topical or ocular, 10 mg, pH 7.4, frozen human skin, gel of Table 13 (formulation 7.2)) of the same compound?
**A.** The bioavailability at 16 h, 1.5 % FBE was 18%.

**Q.** What about the “apparent pKa of nicotine” value [3] of the same compound?
**A.** Its value is 7.7.

**Q.** What about the Oral bioavailability [4] of the same compound?
**A.** The Oral bioavailability was “about 30%”.

**Q.** What about the bioavailability at 16 h, 1.5 % FBE [5] of the same compound?
**A.** The bioavailability at 16 h, 1.5 % FBE was 38%.

From patent publication US7387788B1 (priority 2003, dated 2008)
